From article PMC10876487 (Synthetic and Systems Biotechnology, 2024)

Biological target: T1, ALDH-40 (Bacillus subtilis, UniProt P94358)
T1 sequence (P94358 1-485): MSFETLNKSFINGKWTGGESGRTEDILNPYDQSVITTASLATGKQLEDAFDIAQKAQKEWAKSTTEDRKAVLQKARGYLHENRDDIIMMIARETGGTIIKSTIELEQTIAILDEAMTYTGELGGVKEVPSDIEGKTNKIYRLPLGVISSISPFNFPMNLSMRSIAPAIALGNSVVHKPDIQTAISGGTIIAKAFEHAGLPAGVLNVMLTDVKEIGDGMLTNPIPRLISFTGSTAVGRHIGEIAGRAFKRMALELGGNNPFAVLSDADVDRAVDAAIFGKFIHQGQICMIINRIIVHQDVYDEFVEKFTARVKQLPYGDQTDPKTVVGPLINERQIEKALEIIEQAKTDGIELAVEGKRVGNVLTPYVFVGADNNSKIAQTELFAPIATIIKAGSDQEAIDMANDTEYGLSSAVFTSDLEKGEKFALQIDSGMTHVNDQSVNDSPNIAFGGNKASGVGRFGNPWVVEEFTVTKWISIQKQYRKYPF
Experiment: HPLC, Michaelis-Menten fit
Assay type: biochemical
Conditions: 0.5 μM enzyme, NAD+ 2 mM, 50 mM Tris-HCl pH 8.0, 30 °C

With cinnamaldehyde [2a] the Km was 10 ± 2.7 mM.
